Holding throughout (assay type): functional
Test [1] deals with Rhizopus arrhizus. The test is described as follows: Antifungal activity against Rhizopus oryzae MTCC 262 assessed as growth inhibition at 100 ug/mL after 3 to 4 days by agar diffusion method. The conditions noted are these: read-out: DIZ. For orientation: In agar diffusion tests the substance spreads into inoculated agar from a disc or well.
The subject of test [2] is Aspergillus niger. In words: Antifungal activity against Aspergillus niger ATCC 16404 assessed as growth inhibition at 100 ug/mL after 3 to 4 days by agar diffusion method. The conditions noted are these: read-out: DIZ.
Test [3] relates to Candida albicans. In words: Antifungal activity against Candida albicans ATCC 10231 assessed as growth inhibition at 100 ug/mL after 3 to 4 days by agar diffusion method. The conditions noted are these: read-out: DIZ.
Test [4] has as its system Pseudomonas aeruginosa. In words: Antibacterial activity against Pseudomonas aeruginosa ATCC 27853 assessed as growth inhibition at 100 ug/mL after 24 hr by cup-plate method. To be noted: ATCC 27853, 24 h, read-out: DIZ.
The test system of test [5] is Escherichia coli. The test is described as follows: Antibacterial activity against Escherichia coli ATCC 25922 assessed as growth inhibition at 100 ug/mL after 24 hr by cup-plate method. The conditions noted are these: ATCC 25922, 24 h, read-out: DIZ.
For test [6], the system named is Staphylococcus aureus. The test is described as follows: Antibacterial activity against Staphylococcus aureus ATCC 25923 assessed as growth inhibition at 100 ug/mL after 24 hr by cup-plate method. The conditions noted are these: ATCC 25923, 24 h, read-out: DIZ.
The subject of test [7] is Rhizopus arrhizus. The test is described as follows: Antifungal activity against Rhizopus oryzae MTCC 262 assessed as growth inhibition after 48 hr by broth dilution method.
The subject of test [8] is Aspergillus niger. In words: Antifungal activity against Aspergillus niger ATCC 16404 assessed as growth inhibition after 48 hr by broth dilution method. (Dilution methods test growth across graded concentrations, often in twofold steps.)
The subject of test [9] is Candida albicans. In words: Antifungal activity against Candida albicans ATCC 10231 assessed as growth inhibition after 48 hr by broth dilution method.
Test [10] has as its system Pseudomonas aeruginosa. The test is described as follows: Antibacterial activity against Pseudomonas aeruginosa ATCC 27853 assessed as growth inhibition after 24 hr by broth dilution method.
Test [11] concerns Escherichia coli. The test is described as follows: Antibacterial activity against Escherichia coli ATCC 25922 assessed as growth inhibition after 24 hr by broth dilution method.
Test [12] deals with Staphylococcus aureus. In words: Antibacterial activity against Staphylococcus aureus ATCC 25923 assessed as growth inhibition after 24 hr by broth dilution method.

Values after ≈ are worked out from the molar mass of the structure shown. Active and inactive are the calls of the source. The rule behind the calls is not given here.

As a reminder, the MIC is the lowest concentration found to suppress growth. Regarding `COc1cc(-c2cc(=O)c3cc4c(=O)cc(-c5cc(OC)c(OC)c(OC)c5)oc4cc3o2)cc(OC)c1OC`, the zone of inhibition at 100 µg/mL in test [1] was found to be 10 mm; in test [2] it was 10 mm; in test [3], 10 mm; in [4], 5 mm; in test [5] it was 10 mm; in test [6] it was 5 mm. The MIC in [7] (MTCC 262, 48 h) was 50 µg/mL (≈ 91.5 µM); in test [8] (ATCC 16404, 48 h) it was 50 µg/mL (≈ 91.5 µM); in [9] (ATCC 10231, 48 h), 50 µg/mL (≈ 91.5 µM); in test [10] (ATCC 27853, 24 h), above 100 µg/mL; in test [11] (ATCC 25922, 24 h) it was 50 µg/mL (≈ 91.5 µM); in [12] (ATCC 25923, 24 h), above 100 µg/mL.

For `CC(=O)c1cc(C(C)=O)c(OC(=O)c2cccc(Cl)c2)cc1OC(=O)c1cccc(Cl)c1`, the zone of inhibition at 100 µg/mL in test [1] was below 5 mm; in [2], below 5 mm; in test [3], below 5 mm; in [4], below 5 mm; in test [5], below 5 mm; in [6], 5 mm. Moreover, the MIC result in test [7], in [8], in [9], in test [10] and in [11] was “inactive” in each case. Moreover, in test [12] (ATCC 25923, 24 h), the MIC was above 100 µg/mL.

With `CC(=O)c1cc(C(C)=O)c(OC(=O)c2ccccc2C)cc1OC(=O)c1ccccc1C`, the zone of inhibition at 100 µg/mL in test [1], in test [2], in [3], in test [4], in test [5] and in test [6] was below 5 mm throughout. Moreover, the MIC result in test [7], in test [8], in test [9], in test [10], in test [11] and in test [12] was “inactive” each time.

For the molecule `CC(=O)c1cc(C(C)=O)c(OC(=O)c2ccc(Cl)cc2)cc1OC(=O)c1ccc(Cl)cc1`, the zone of inhibition at 100 µg/mL in [1] is 5 mm; in test [2], below 5 mm; in test [3], 5 mm; in test [4], below 5 mm; in test [5], 5 mm; in test [6], 5 mm. The MIC in test [7] (MTCC 262, 48 h) is above 100 µg/mL; in [9] (ATCC 10231, 48 h), above 100 µg/mL; in [11] (ATCC 25922, 24 h) it was above 100 µg/mL; in test [12] (ATCC 25923, 24 h), above 100 µg/mL. For the same molecule, the MIC result in [8] and in test [10] was “inactive” in each case.

In the case of `CCN(CC)c1ccc(/C=C/C(=O)c2cc(C(=O)/C=C/c3ccc(N(CC)CC)cc3)c(O)cc2O)cc1`, the zone of inhibition at 100 µg/mL in test [1] was determined as 5 mm; in test [2], 5 mm; in test [3], 10 mm; in test [4], 5 mm; in [5], 10 mm; in test [6], 10 mm. Further, the MIC in [7] (MTCC 262, 48 h) was above 100 µg/mL; in test [8] (ATCC 16404, 48 h), above 100 µg/mL; in test [9] (ATCC 10231, 48 h), 50 µg/mL (≈ 97.5 µM); in test [10] (ATCC 27853, 24 h) it was above 100 µg/mL; in test [11] (ATCC 25922, 24 h) it was 50 µg/mL (≈ 97.5 µM); in test [12] (ATCC 25923, 24 h), 50 µg/mL (≈ 97.5 µM).

In the case of `CN(C)c1ccc(/C=C/C(=O)c2cc(C(=O)/C=C/c3ccc(N(C)C)cc3)c(O)cc2O)cc1`, the zone of inhibition at 100 µg/mL in [1] was 10 mm; in test [2], 5 mm; in [3] it was 10 mm; in [4], 10 mm; in [5], 15 mm; in test [6] it was 10 mm. In addition, the MIC in test [7] (MTCC 262, 48 h) is 50 µg/mL (≈ 110 µM); in [8] (ATCC 16404, 48 h), above 100 µg/mL; in test [9] (ATCC 10231, 48 h), 50 µg/mL (≈ 110 µM); in test [10] (ATCC 27853, 24 h), 50 µg/mL (≈ 110 µM); in [11] (ATCC 25922, 24 h) it was 25 µg/mL (≈ 54.8 µM); in [12] (ATCC 25923, 24 h) it was 50 µg/mL (≈ 110 µM).
